Here are results for nine compounds from patent publication US20090104633A1, “Kit for Highly Sensitive Detection Assays” (priority 2005, published 2009).

Series [1] in a line: Hydrolysis half-lifes of active ester derivatives by 1H-NMR. In kind it is physicochemical. The conditions noted are these: 50 mM deuterated phosphate buffer, pD 7.2, room temperature, 1 mM active ester. Here is the method:
The hydrolysis half-lifes of active ester derivatives in physiological buffer were determined by ^1H-NMR spectroscopy. For this purpose a 50 mM phosphate buffer in deuterium oxide (D2O, […]) (deutero, Kastellaun, FRG), pD 7.2, was prepared. The phosphate salts were lyophilized thrice from fresh deuterium oxide. Finally, fresh D2O was added and the pD value was verified. […] To initiate the hydrolysis reaction 10 μl of these solutions were added to 490 μl of 50 mM deuterated phosphate-buffer, pD 7.2, spiked with 3-(trimethylsilyl)-1-propanesulfonic acid-D6 sodium salt (TMSPS) (Merck, Darmstadt, FRG) (0.1 mg/ml) as internal reference, resulting in a final concentration of active ester derivatives of 1 mM. The hydrolysis of the active esters was monitored at room temperature by ^1H-NMR spectroscopy with an Avance DRX-600 system (Bruker BioSpin, Rheinstetten, FRG) at 600 MHz. The first ^1H-spectrum was recorded 6-12 min after addition of the phosphate buffer, additional spectra were recorded at about 20, 40, 60, 120, 240, 360 and 1000-1600 min (over night). After the last measurement the pD-value was verified again. The hydrolysis reaction of each active ester derivative was measured in 2-3 independent experiments.
The Bruker software X-WIN-NMR (V 2.5; Bruker BioSpin) was used to acquire and process the data recorded at different time points. For this purpose, signals which were altered in intensity or chemical shift due to deuterolysis and which were not superimposed by signals of other nuclei were integrated and put in relation to the internal standard TMSPS. The concentration of the non-hydrolyzed active ester derivatives was calculated from the change of peak integrals and was plotted versus time.

The target in the next series is T1, insulin (Bos taurus, UniProt P01317).
T1 construct: 2 NH2-termini (chain A and B), 1 lysine side chain; purchased Sigma-Aldrich, Taufkirchen, FRG
T1 sequence (P01317 25-54 limits assumed): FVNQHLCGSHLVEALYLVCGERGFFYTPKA
T1 sequence (P01317 85-105 limits assumed): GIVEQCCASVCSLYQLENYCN
Description: Mean degree of derivatization of insulin with active esters (MALDI-TOF-MS). Details: species or system bovine. The conditions noted are these: 35 nMoles insulin reacted with 350 nMoles active ester, pH 7.2, 90 min RT; three independent experiments. Here is the method: (§1) Stock solutions of active esters of the labelling compounds summarized in Table 2 (4.2-9.2 mg/ml, 14 mM) as well as labelling compounds (7a), (7b) and (7c) (approximately 15 mM) were prepared freshly in anhydrous dimethylsulfoxide (DMSO) for each labelling experiment. Likewise, a stock solution of insulin (200 μg/ml, 35 μM; bovine insulin, MW 5733,49; Sigma-Aldrich, Taufkirchen, FRG) in 50 mM phosphate buffer, pH 7.2, 0.02 mM ethylenediaminetetraacetic acid (EDTA) (PBS/EDTA) was prepared. For labelling, insulin (35 nMoles, representing 105 nMoles amino functions (2 NH2-termini (chain A and B), 1 lysine side chain)) was reacted with active esters (350 nMoles) in a final volume of 1.25 ml PBS/EDTA, containing no more than 2% (v/v) DMSO in any experiment. The solutions were mixed on an end-to-end mixer for 90 min at RT and the labelling reactions were terminated by addition of glycine (1 mMole) in PBS/EDTA. Mixing was continued for 60 min at RT before the solution was dialyzed against PBS/EDTA (MWCO 2,000). After another dialysis against water, the heterogeneity of the samples and the molecular masses of the products were determined in MALDI-TOF-MS analyses (Bruker-Reflex II instrument; Bruker-Daltonik, Bremen, FRG). The mean labelling degree was calculated as described elsewhere (Olivier V, Meisen I, Meckelein B, Hirst T R, Peter-Katalinic J, Schmidt M A, Frey A (2003). Influence of targeting ligand flexibility on receptor binding of particulate drug delivery systems. Bioconjug Chem. 14:1203-8.) (Table 6).

Series [2] has as its target T2, Streptavidin AlexaFluor680 (Streptomyces avidinii, UniProt P22629). Description: Dot blot detection of hydrazide-labelled glycoprotein (porcine mucin) on nitrocellulose. The conditions noted are these: periodate-oxidized mucin, mean ± SEM.
Description: All subsequent treatments of the membranes were carried out in tight fitting trays. For oxidation or the carbohydrate moieties of the glycoprotein the membranes were incubated for 20 min at RT in 3 ml (0.21 ml/cm^2 membrane) 10 mM sodium m-periodate (Sigma-Aldrich, Taufkirchen, FRG) in 100 mM sodium acetate buffer (pH 5). They were washed another 3× in D-PBS, incubated each for 60 min at RT with 3 ml (0.21 ml/cm^2 membrane) of 2.5 μM labelling-hydrazide (Table 4) in 100 mM sodium acetate buffer (pH 5), washed again 3× in D-PBS and blocked with 1% (w/v) Casein (Hammarsten grade, BDH, Poole, UK) in D-PBS (Casein-PBS) for 30 min at RT. Blocked membranes were incubated for 90 min at RT with 4 ml (0.28 ml/cm^2 membrane) diluted monoclonal antibodies against 2,4-dichlorophenoxyacetic acid or monoclonal antibodies against DIG or with AlexaFluor680-labelled streptavidin (for working concentrations see Table 3) in Casein-PBS and washed 3× with D-PBS. […] After intense washing with D-PBS fluorescence was read out on a fluorescence imager (Odyssey Infrared Imager, LI-COR Biosciences, Lincoln, Nebr., USA) and quantitated with an appropriate image analysis software (Odyssey Software v.1.2). Statistical analysis of the data was carried out with the GraphPad Prism Suite (v.4.0.0, GraphPad Software, San Diego, Calif., USA).
The next series has as its target T3, streptavidin-HRP (Streptomyces avidinii, UniProt P22629).
T3 construct: purchased Vector Labs, Burlingame, Calif., USA
Description: Detection of active ester-labelled insulin on PVDF filterplates (HRP/TMB). Type of series: binding. The note with it: for Detection limit of labelled protein: insulin conjugate on PVDF, mean ± SEM; for Detection limit of label: insulin conjugate, converted from pg protein with labelling degree (Table 6). Here is the method: as §1
The concentrations of the labelled polypeptides were determined by standard assays and serial dilutions of the solutions were prepared in PBS/EDTA. Equal amounts of the diluted solutions (1,000-0.12 ng conjugate/well, each in 50 μl PBS/EDTA) were applied onto 96-well polystyrene filterplates equipped with polyvinylidene fluoride (PVDF) membrane bottoms (Corning, Corning, N.Y., USA), which had been pre-activated with 70% (v/v) ethanol and washed with phosphate buffer. The plates were incubated for 30 min at room temperature before the solutions were sucked through the membranes with a MultiScreen vacuum manifold (Millipore, Schwalbach, FRG). […] Nonspecific binding sites were blocked with 200 μl/well 2% (w/v) caseinate in D-PBS (Caseinate-PBS) for 30 min at RT and the solutions were removed. […] After the plates were washed another 6× with PBST with the vacuum manifold and 6× with D-PBS with the plate washer, color was developed at room temperature in the dark with 75 μl/well of a highly sensitive tetramethylbenzidine-based substrate reagent (1 mM 3,3′,5,5′-tetramethylbenzidine, 3 mM H2O2 in 200 mM potassium citrate, pH 4.0; (Frey A, Meckelein B, Externest D, Schmidt M A (2000). A stable and highly sensitive 3,3′,5,5′-tetramethylbenzidine-based substrate reagent for enzyme-linked immunosorbent assays. J Immunol Methods. 233:47-56.)). The reaction was terminated after 30 min with 125 μl/well 1 M sulfuric acid.

Series [3] concerns the target T2, Streptavidin AlexaFluor680. Nature of the series: Dot blot detection of active ester-labelled ovalbumin on nitrocellulose. Details: purchased Invitrogen. Type of series: binding. The conditions noted are these: ovalbumin conjugate, mean ± SEM. Here is the method:
Stock solutions of 65-100 mg/ml (120-330 mM) active ester of the labelling compounds (Table 2) were prepared freshly in anhydrous dimethylsulfoxide (DMSO) for each labelling experiment. […] For labelling 100 nMoles ovalbumin (representing 2 μMoles amino functions) were reacted with 1.5 μMoles of active ester in a final volume of 300 μl 100 mM sodium tetraborate, pH 8.2, containing no more than 5% (v/v) DMSO in any experiment. The solutions were mixed on an end-to-end mixer for 180 min at RT and the labelling reactions were terminated by addition of 1.5 mmoles glycine in sodium tetraborate buffer. Mixing was continued overnight at 4° C. before the solutions were dialyzed against sodium tetraborate buffer. The concentrations of the labelled protein were determined by standard assays and serial dilutions of the stock solutions were prepared.

T3 sequence (P22629 25-183): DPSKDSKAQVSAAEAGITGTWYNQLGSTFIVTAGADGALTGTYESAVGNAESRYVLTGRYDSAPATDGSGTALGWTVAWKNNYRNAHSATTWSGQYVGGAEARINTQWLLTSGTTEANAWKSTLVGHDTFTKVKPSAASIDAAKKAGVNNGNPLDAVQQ
T2 sequence (P22629 25-183): as above

`O=C(COc1ccc(Cl)cc1Cl)ON1C(=O)CCC1=O` [(1b)] returned a Hydrolysis half-life in series [1] of 25 min. In addition, the Mean labelling degree on insulin is recorded as 0.52 Mole label: Mole insulin.

Turning to `O=C(COc1ccc(Cl)cc1Cl)NCCCCCC(=O)ON1C(=O)CC(S(=O)(=O)[O-])C1=O.[Na+]` (centres unmarked) [(3b), 6-(2-(2,4-dichlorophenoxy)acetylamino)-hexanoic acid-N-hydroxysulfosuccinimidyl-ester-sodium Salt], in series [1], the Hydrolysis half-life is reported as 231^(*^) min. The Mean labelling degree at insulin is recorded as 1.61 Mole label: Mole insulin.

As to `O=C(COc1ccc(Cl)cc1Cl)NCCCCCCCCCCC(=O)ON1C(=O)CC(S(=O)(=O)[O-])C1=O.[Na+]` (centres unmarked) [(3d), 11-(2-(2,4-dichlorophenoxy)acetylamino)-undecanoic acid-N-hydroxysulfosuccinimidyl-ester-sodium Salt], the Mean labelling degree on insulin is reported as 0.38 Mole label: Mole insulin.

As for `NNC(=O)CCCCCNC(=O)CCCC[C@@H]1SC[C@@H]2NC(=O)N[C@@H]21` [Biotin-C6 hydrazide, LC-(+)-Biotinoylhydrazide], the “Detection limit of proteins after labelling with hydrazide derivatives” value in series [2] is given as 49.1 ± 6.3^ pg.

As to `C[C@]12CC[C@H](OCC(=O)NCCCCCC(=O)ON3C(=O)CCC3=O)C[C@H]1CC[C@@H]1[C@@H]2C[C@@H](O)[C@]2(C)[C@@H](C3=CC(=O)OC3)CC[C@]12O` [DIG-C6-NHS, Digoxigenin-3-O-methylcarbonyl-ε-aminocaproyl-N-hydroxysuccinimide], in series [1], the Hydrolysis half-life is recorded as 248^(*^) min. Also, the Mean labelling degree at insulin is reported as 1.50 Mole label: Mole insulin.

As to `O=C(CCCCCNC(=O)CCCC[C@@H]1SC[C@@H]2NC(=O)N[C@@H]21)NCCCCCC(=O)ON1C(=O)CCC1=O` [NHS-SLC-biotin, SLC-NHS-(+)-Biotin], on streptavidin-HRP, the “Detection limit of labelled protein” value was 1,277,778.0 ± 237,333.4 pg and the “Detection limit of label” value was 17,829.0 ± 3,311.5 fMole. On insulin, the Mean labelling degree is listed as 0.08 Mole label: Mole insulin. Moreover, in series [3], the “Detection limit of proteins after labelling with active ester derivatives” value (“Detection limit … with active ester derivatives” below) is recorded as 39063.0 ± 5508.0 pg.

In turn, `O=C(CCCC[C@@H]1SC[C@@H]2NC(=O)N[C@@H]21)NCCCCCC(=O)ON1C(=O)CC(S(=O)(=O)[O-])C1=O.[Na+]` (stereo partly drawn) [Sulfo-NHS-LC-biotin, Sulfo-LC-(+)-Biotin] returned a Hydrolysis half-life in series [1] of 101 min. At streptavidin-HRP, the “Detection limit of labelled protein” value is listed as 33,854.2 ± 6,107.3 pg and the “Detection limit of label” value is recorded as 10,156.0 ± 1,832.1 fMole. The Mean labelling degree on insulin is given as 1.72 Mole label: Mole insulin. Also, the “Detection limit … with active ester derivatives” value in series [3] was 248.0 ± 66.6 pg.

Turning to `O=C1N[C@H]2[C@H](CS[C@H]2CCCCC(=O)ON2C(=O)CC(S(=O)(=O)[O-])C2=O)N1.[Na+]` (stereo partly drawn) [Sulfo-NHS-biotin, Sulfo-Succinimidyl-(+)-biotin], the Hydrolysis half-life in series [1] is given as 62 min. At streptavidin-HRP, the “Detection limit of labelled protein” value is 62,500.0 ± 15,343.4 pg and the “Detection limit of label” value is 19,512.6 ± 4,790.2 fMole. For the same compound, the Mean labelling degree on insulin was 1.79 Mole label: Mole insulin. Further, the “Detection limit … with active ester derivatives” value in series [3] stood at 246.5 ± 67.2 pg.

On to “SLC-(+)-Biotinoylhydrazide [Biotin-C11 hydrazide]”, for which the “Detection limit of proteins after labelling with hydrazide derivatives” value in series [2] is recorded as 114.6 ± 10.4^ pg.
